Entries after “also recorded” stand apart in the source; their conditions may differ. Read-outs that look alike come from different tables or passages of the source. *: point of attachment. Cbz = O=C(OCc1ccccc1)*; CH2F = FC*

Data set [1] concerns RPE. Briefly: Alu RNA-induced RPE degeneration in wild-type mice, inhibitors given intravitreously. Format: in vivo. The conditions noted are these: WT mice, subretinal Alu RNA, inhibitor intravitreous. The procedure:
(§1) Subretinal injection and imaging. Subretinal injections (1 μL) were performed using a Pico-Injector (PLI-100, Harvard Apparatus). Plasmids were transfected in vivo using 10% Neuroporter (Genlantis). Fundus imaging was performed on a TRC-50 IX camera (Topcon) linked to a digital imaging system (Sony). RPE flat mounts were immunolabeled using antibodies against zonula occludens-1 (Invitrogen).
(§2) Retinal photographs of dilated mouse eyes were taken with a TRC-50 IX camera (Topcon) linked to a digital imaging system (Sony).
(§3) Human eyes fixed in 2-4% paraformaldehyde were prepared as eyecups, cryoprotected in 30% sucrose, embedded in optimal cutting temperature compound (Tissue-Tek OCT; Sakura Finetek), and cryosectioned into 10 μm sections. Depigmentation was achieved using 0.25% potassium permanganate and 0.1% oxalic acid. Immunohistochemical staining was performed with the rabbit antibody against NLRP3 (1:100, Sigma Aldrich) or rabbit antibody against Caspase-1 (prediluted, AbCam). Isotype IgG was substituted for the primary antibody to assess the specificity of the staining. Bound antibody was detected with biotin-conjugated secondary antibodies, followed by incubation with ABC reagent and visualized by Vector Blue (Vector Laboratories). Levamisole (Vector Laboratories) was used to block endogenous alkaline phosphatase activity. Slides were washed in PBS, counterstained with neutral red (Fisher Scientific), rinsed with deionized water, air dried, and then mounted in Vectamount (Vector Laboratories). Fluorescent labeling of human tissue was performed with the rabbit antibody against PYCARD (1:50, Clone N-15, Santa Cruz Biotechnology) Immunolabeling was visualized by fluorescently conjugated anti-rabbit secondary antibody (Invitrogen). Tissue autofluorescence was quenched by incubating the sections in 0.3% Sudan black (Fisher Scientific). Sections were mounted in Vectashield with DAPI (Vector Laboratories). Mouse RPE/choroid flat mounts were fixed with 4% paraformaldehyde or 100% methanol, stained with rabbit antibodies against human zonula occludens-1 (1:100, Invitrogen) and visualized with Alexa594 (Invitrogen). All images were obtained using the Leica SP-5 or Zeiss Axio Observer Z1 microscopes.
(§4) Subretinal injections (1 μL) in mice were performed using a Pico-Injector (PLI-100, Harvard Apparatus). In vivo transfection of plasmids coding for two different Alu sequences (pAlu) or empty control vector (pNull) (Bennett et al., 2008; Kaneko et al., 2011; Shaikh et al., 1997) was achieved using 10% Neuroporter (Genlantis). AAV1-BEST1-Cre (Alexander and Hauswirth, 2008) or AAV1-BEST1-GFP were injected at 1.0×10^11 pfu/mL and in vitro transcribed Alu RNA was injected at 0.3 mg/mL.
(§5) siRNAs formulated in siRNA buffer (20 mM KCL, 0.2 mM MgCl2 in HEPES buffer at pH 7.5; Dharmacon) or phosphate buffered saline (PBS; Sigma-Aldrich); the TLR4 antagonist Ultra Pure Rhodobacter sphaeroides LPS (LPS-RS, InvivoGen), a peptide inhibitor of MyD88 homodimerization IMG-2005 (IMGENEX), control inhibitor (IMGENEX), recombinant IL-18 (Medical & Biological Laboratories), neutralizing rat antibodies against mouse IL-1β (IMGENEX), neutralizing rat antibodies against mouse IL-18 (Medical & Biological Laboratories), isotype control IgGs (R&D Systems or eBioscience as appropriate), Caspase-1 inhibitor Z-WEHD-FMK (R&D Systems), Caspase control inhibitor Z-FA-FMK (R&D Systems), DPI (Enzo Life Sciences), Mito-TEMPO (Enzo Life Sciences), MitoQ and dTPP (both adsorbed to cyclodextrin and provided by M.P. Murphy, MRC Mitochondrial Biology Unit), and gp91ds-tat and scrambled gp91 ds-tat (both Anaspec), were dissolved in phosphate buffered saline (PBS; Sigma-Aldrich) or dimethyl sulfoxide (DMSO; Sigma-Aldrich), and injected into the vitreous humor in a total volume of 1 μL with a 33-gauge Exmire microsyringe (Ito Corporation). […] As a control, Luc siRNA-chol (17+2 nt) was used with identical dosages.

A further data set deals with NLRP3 and IL18 mRNAs. Briefly: NLRP3 and IL18 mRNA in human RPE cells (real-time RT-PCR). Format: cell-based. The source says:
Transcript abundance was quantified by real-time RT-PCR using an Applied Biosystems 7900 HT Fast Real-Time PCR system by the 2^−ΔΔCt method.
Total RNA was extracted from tissues or cells using Trizol reagent (Invitrogen) according to manufacturer's recommendations, DNase treated and reverse transcribed (QuantiTect, Qiagen). The RT products (cDNA) were amplified by real-time quantitative PCR (Applied Biosystems 7900 HT Fast Real-Time PCR system) with Power SYBR green Master Mix. Oligonucleotide primers specific for human IL1B (forward 5′-[…]-3′ and reverse 5′-[…]-3′), human IL18 (forward 5′-[…]-3′ and reverse 5′-[…]-3′), human NLRP3 (forward 5′-[…]-3′ and reverse 5′-[…]-3′), human PYCARD (forward 5′-[…]-3′ and reverse 5′-[…]-3′), human VDAC1 (forward 5′-[…]-3′ and reverse 5′-[…]-3′), human VDAC2 (forward 5′-[…]-3′ and reverse 5′-[…]-3′), human VDAC3 (forward 5′-[…]-3′ and reverse 5′-[…]-3′), human 18S rRNA (forward 5′-[…]-3′ and reverse 5′-[…]-3′), mouse Myd88 (forward 5′-[…]-3′ and reverse 5′-[…]-3′), mouse Nlrp3 (forward 5′-[…]-3′ and reverse 5′-[…]-3′), mouse Il18 (forward 5′-[…]-3′ and reverse 5′-[…]-3′), and mouse 18S rRNA (forward 5′-[…]-3′ and reverse 5′-[…]-3′) were used. The QPCR cycling conditions were 50° C. for 2 min, 95° C. for 10 min followed by 40 cycles of a two-step amplification program (95° C. for 15 s and 58° C. for 1 min). At the end of the amplification, melting curve analysis was applied using the dissociation protocol from the Sequence Detection system to exclude contamination with unspecific PCR products. […] For negative controls, no RT products were used as templates in the QPCR and verified by the absence of gel-detected bands. Relative expressions of target genes were determined by the 2^−ΔΔCt method.

Data set [2] has as its system RPE. Kind of data set: pAlu-induced RPE degeneration in wild-type mice, inhibitors given intravitreously. Format: in vivo. Conditions: WT mice, subretinal pAlu, inhibitor intravitreous, fundus photographs and ZO-1 flat mounts. The protocol:
as §1, §2, §3, §4
as §5, with “dosages. […]” for “dosages.”

The test system of data set [3] is human RPE cells. Conditions: glycine 5 mM, LPS 5 μg/ml 6 h, ATP 25 μM. The procedure: (§6) MTS assays were performed using the CellTiter 96 AQueous One Solution Cell Proliferation Assay (Promega) according to the manufacturer's instructions. For examining the cytoprotective effect of glycine in Alu RNA induced cell death, human RPE cells were transfected with pNull/pAlu. At 6 h post-transfection the cells were incubated with complete media containing glycine (5 mM) or vehicle, and cell viability was assessed after 24 h. Similarly, human RPE cells primed with LPS (5 μg/ml for 6 h) were treated with ATP (25 μM) in the presence of glycine containing media (5 mM). 30 min post ATP cell viability was assessed as described above.

For data set [4], the system named is human RPE cells. The conditions noted are these: peptide 100 μM. The procedure: All cell cultures were maintained at 37° C. and 5% CO2. Primary mouse RPE cells were isolated as previously described (Yang et al., 2009) and grown in Dulbecco Modified Eagle Medium (DMEM) supplemented with 20% FBS and standard antibiotics concentrations. Primary human RPE cells were isolated as previously described (Yang et al., 2008) and maintained in DMEM supplemented with 10% FBS and antibiotics. HeLa cells were maintained in DMEM supplemented with 20% FBS and standard antibiotics concentrations. THP-1 cells were cultured in RPMI 1640 medium supplemented with 10% FBS and antibiotics.
as §6
MTS assays were performed using the CellTiter 96 AQueous One Solution Cell Proliferation Assay (Promega) according to the manufacturer's instructions.

Regarding `c1ccc([I+]c2ccccc2)cc1` [DPI, diphenyliodonium], the “Alu RNA-induced RPE degeneration” value in the data set on RPE [1] is “blocked”. Moreover, in the data set with NLRP3 and IL18 mRNAs, the “pAlu-induced NLRP3 and IL18 mRNA upregulation” value was “blocks; also recorded: blocked pAlu-induced NLRP3 and IL18 mRNA upregulation”. Besides, the “pAlu-induced RPE degeneration” value with RPE [2] is reported as “protects”.
As to `CC1(C)CC(NC(=O)C[P+](c2ccccc2)(c2ccccc2)c2ccccc2)CC(C)(C)N1[O]` [Mito-TEMPO], the “Alu RNA-induced RPE degeneration” value in the data set with RPE [1] was “blocked”; in the data set with RPE [1] (listed as MitoTempo), “prevent”.
As to `COC1=C(OC)C(=O)C(CCCCCCCCCC[P+](c2ccccc2)(c2ccccc2)c2ccccc2)=C(C)C1=O` [MitoQ], the “Alu RNA-induced RPE degeneration” value in the data set on RPE [1] was “prevent; also recorded: blocked”.
For `NCC(=O)O` [glycine], the “human RPE cell death induced by LPS+ATP” value with human RPE cells [3] is reported as “inhibited”; in the data set with human RPE cells [3] (listed as Glycine) it was “inhibits”.
In the case of Cbz-IETD-CH2F, in the data set on human RPE cells [4], the “pAlu-induced cytotoxicity in human RPE cells” value is “inhibited human RPE cell death; also recorded: protects”. Besides, the “pAlu-induced RPE degeneration” value in the data set with RPE [2] was “blocked RPE degeneration”; in the data set with RPE [2] (listed as Caspase-8 inhibitor), “protects”.
In the case of DRQIKIWFQNRRMKWKK [control peptide], in the data set on RPE [1], the “Alu RNA-induced RPE degeneration” value was “did not do so”.

Values taken from patent US9453226B2, “Protection of cells from Alu-RNA-induced degeneration and inhibitors for protecting cells” (UNIVERSITY OF KENTUCKY RESEARCH FOUNDATION, priority 2011, dated 2016).
